Test results as given in patent US20080145465A1, “Sesquiterpene lactone extract from artemisia leucodes for reducing inflammation and down-regulating pro-inflammatory gene expression” (priority 2006, published 2008).
Values joined by “and” are separate entries in the source; they are usually repeats but may differ in a detail not shown here. Equal values may be shown once. “Also recorded” adds a separate entry of the source. Read-outs that look alike come from different tables or passages of the source.

Key:
Format in all cases: cell-based, murine
iNOS = assay: Quantitative real-time RT-PCR: iNOS gene expression in LPS-elicited RAW 264.7 macrophages; details: for iNOS gene expression (LPS control = 100; values less than 100 represent inhibition): Table 4 experiment
Method: (§1) RAW 264.7 murine monocyte/macrophages (ATCC TIB-71) were maintained in Dulbecco's Modified Eagle Medium (D-MEM, Invitrogen Corp., Carlsbad, Calif.) supplemented with 10% fetal bovine serum (FBS, Invitrogen Corp., Carlsbad, Calif.) and 1% streptomycin and were kept in a humidified 37° C. incubator with 5% CO2. Cells were subcultured by scraping when plates reached 90% confluency with a 1:5 ratio.
(§2) Murine RAW macrophages 264.7 were plated at a density of 0.4×10^6 cells per well in 24-well plates 12 hours prior to treatment. A stock solution of AL-1 was created by completely dissolving the dry extract as in Example 1 in 95% ethanol. Two hours before elicitation with lipopolysaccharide (LPS, 1 μg/ml, Sigma, St. Louis, Mo.) the cells were treated with various concentrations of AL-1 (25-200 μg/ml) or vehicle control, maintaining a final concentration of 0.5% ethanol for all treatments. After six hours of treatment, RNA was extracted from cells using TRIzol® reagent (Invitrogen Corp., Carlsbad, Calif.) according to the manufacturer instructions. RNAs were quantified spectrophotometrically at 260 nm and stored at −80° C. until real-time PCR could be performed.
(§3) RNA was purified by treating with DnaseI (Invitrogen Corp., Carlsbad, Calif.) before performing reverse transcription with Stratascript Reverse Transcriptase, an RNA dependent DNA polymerase (Stratagene, La Jolla, Calif.) according to the manufacturer instructions. The cDNAs obtained were then amplified by real-time PCR. Expression of COX-2, iNOS, IL1β and β-actin gene expression levels was quantified using a Stratagene Mx 3000P™ Real-Time PCR System (Stratagene, La Jolla, Calif.). Primers for each gene were designed using Primer Express® version 2.0 software (Applied Biosystems, Foster City, Calif.; Table 2) (Giulietti et al., 2001; Overbergh et al., 2003).
(§4) Real-time PCR analyses were carried out using a Brilliant® SYBR® Green PCR master mix kit (Stratagene, La Jolla, Calif.) according to kit instructions. Samples were amplified using the following program: two minutes incubation at 50° C.; initial denaturation and polymerase activation at 95° C. for ten minutes; 40 PCR cycles consisting of 15 seconds at 95° C. and 60 seconds at 60° C. each. The RNA expression of the target genes were analyzed by ΔΔCT methods (Winer et al., 1999) using β-Actin gene as normalizer. The ΔΔCT values obtained from these analyses directly reflect the relative mRNA quantities for the marker gene in response to specific treatments. Lower ΔΔCT values indicate greater anti-inflammatory activity. The changes in gene expression as reflected by ΔΔCT values can also be expressed as percentage genetic inhibition [(1−ΔΔCT)×100] indicating anti-inflammatory properties of the test compounds. Amplification of specific transcripts was further confirmed by obtaining melting curve profiles. All samples were run in duplicate; four independent analyses were performed.

COX-2 = assay: Quantitative real-time RT-PCR: COX-2 gene expression in LPS-elicited RAW 264.7 macrophages; details: for COX-2 gene expression (LPS control = 100; values less than 100 represent inhibition): Table 4 experiment
Method: as §1, §2, §3, §4

IL1β = assay: Quantitative real-time RT-PCR: IL1β gene expression in LPS-elicited RAW 264.7 macrophages; details: for IL1β gene expression (LPS control = 100; values less than 100 represent inhibition): Table 4 experiment; for effect on IL1β gene expression (in words): LPS-elicited RAW macrophages
Method: as §1, §2, §3, §4

[1] = tested on: nitric oxide (NO) production from RAW macrophages; assay: Griess assay for NO production by LPS-stimulated RAW macrophages; details: for NO production (relative to control), mean ± SE: LPS 1 μg/mL, 24 hours, n = 8, % of control; for IC50: read-out: IC50, inhibition of NO production
Method: as §1
Down-regulation of various pro-inflammatory genes including iNOS, IL1β, and TNF-α can reduce nitric oxide production by macrophages. In order to confirm that changes in pro-inflammatory gene expression were affecting cellular function, the Griess assay was performed to indirectly measure nitric oxide production by LPS-induced macrophages by measuring nitrite (Misko et al., 1993). For the assay, RAW cells were plated in a 24-well plate at a minimum density of 0.4×10^6 cells/well and grown for 24 hours. A stock solution of AL-1 was created by completely dissolving dry extract as in Example 1 in 95% ethanol. Cells were stimulated with 1 μg/mL LPS with simultaneous addition of AL-1 (10-100 μg/mL), aspirin (10 mM), or vehicle control (0.5% ethanol), maintaining a final concentration of 0.5% ethanol for every treatment. After 24 hours, conditioned media (50 μl) was removed and immediately mixed with 100 μl of Griess reagent (10% sulfanilamide, 1% naphthalene-ethylenediamine dihydrochloride in 5% H3PO4, all from Sigma, St. Louis, Mo.). After incubation for 15 minutes at room temperature, the samples were read at 550 nm using a microplate spectrophotometer (Molecular Devices, Sunnyvale, Calif.). Data for each treatment were normalized based on results from an MTS cell proliferation assay.
A CellTiter 96 assay kit (Promega Corp. Madison, Wis.) was used to determine the relative number of viable cells remaining after incubation with treatments. For the assay, old media containing treatments or controls was removed from the 96-well plates and replaced with 100 μL fresh media per well. Next, 20 μL MTS/PMS reagent ([3-(4,5-dimethylthiazol-2-yl)-5-(3-carboxymethoxyphenyl)-2-(4-sulfophenyl)-2H-tetrazolium plus phenazine methosulfate) was added to each well followed by a three hour incubation period at 37° C., 5% CO2. Plates were read using a microplate reader (Molecular Devices, Sunnyvale, Calif.) at 490 nm. A blank row corrected for background noise and data was expressed as a percent of the LPS control. Each treatment was tested on three different plates with 8 wells on each plate for a total of 24 wells.

[2] = tested on: nitric oxide (NO) production from RAW macrophages; assay: as above; details: LPS 1 μg/mL, 24 hours, n = 8, % of control

| Structure (SMILES) | iNOS gene expression (LPS control = 100; values less than 100 represent inhibition) (iNOS; 25 μg) | iNOS gene expression (LPS control = 100; values less than 100 represent inhibition) (iNOS; 50 μg) | iNOS gene expression (LPS control = 100; values less than 100 represent inhibition) (iNOS; 75 μg) | effect on iNOS gene expression (in words) (iNOS; LPS-elicited RAW macrophages) | COX-2 gene expression (LPS control = 100; values less than 100 represent inhibition) (COX-2; 25 μg) | COX-2 gene expression (LPS control = 100; values less than 100 represent inhibition) (COX-2; 50 μg) | COX-2 gene expression (LPS control = 100; values less than 100 represent inhibition) (COX-2; 75 μg) | effect on COX-2 gene expression (in words) (COX-2; LPS-elicited RAW macrophages) | IL1β gene expression (LPS control = 100; values less than 100 represent inhibition) (IL1β; 25 μg) | IL1β gene expression (LPS control = 100; values less than 100 represent inhibition) (IL1β; 50 μg) | IL1β gene expression (LPS control = 100; values less than 100 represent inhibition) (IL1β; 75 μg) | effect on IL1β gene expression (in words) (IL1β) | NO production (relative to control), mean ± SE ([1]; 20 μg/ml) [%] | NO production (relative to control), mean ± SE ([1]; 50 μg/ml) [%] | NO production (relative to control), mean ± SE ([1]; 100 μg/ml) [%] | IC50, inhibition of NO production ([1]; RAW macrophages elicited with LPS) [µg/mL] | IC50 ([1]; RAW macrophages elicited with LPS, molar value in brackets) [µM] | NO production (relative to control), mean ± SE ([2]; 2 μg/ml) [%] | NO production (relative to control), mean ± SE ([2]; 4 μg/ml) [%] | IC50 ([1]; Mus musculus, Macrophage) |
| --- | --- | --- | --- | --- | --- | --- | --- | --- | --- | --- | --- | --- | --- | --- | --- | --- | --- | --- | --- | --- |
| CC1=CC(=O)C2=C(C)CC[C@@H]3[C@H](OC(=O)[C@H]3C)[C@@H]12 [leukomisin] | 127 | 151 | 126 | no affect on gene expression; also recorded: no activity | 140 | 165 | 159 | no affect on gene expression; also recorded: no activity | 110 | 161 | 281 | no affect on gene expression; also recorded: no activity | 82 ± 4 | 72 ± 1 | 64 ± 2 | 160 | 650 | 100 ± 2 | 98 ± 1 | – |
| CC1=CC(=O)C2=C(C)C[C@H](O)[C@@H]3[C@H](OC(=O)[C@H]3C)[C@@H]12 (single isomer, unassigned) [austricin] | 102 | 108 | 113 | – | 120 | 116 | 102 | – | 58 | 65 | 65 | only marginal activity | 89 ± 1 | 89 ± 1 | 84 ± 2 | – | – | 100 ± 1 | 100 ± 1 | 440 µg/mL and 1.68 mM |
